From article PMC2063170, “A phase I clinical and pharmacokinetic study of the new topoisomerase inhibitor GI147211 given as a 72-h continuous infusion” (British Journal of Cancer, 1998)

Test: Phase I toxicity (Common Toxicity Criteria), 72-h continuous infusion
Conditions: for MTD: 72-h infusion
From the text: Brrtish Joumal of Cancer(1998) 78(10). 1329-1336 @ 1998 Cancer Research Campaign A phase I clinical and pharmacokinetic study of the new topoisomerase inhibitor G1147211 given as a 72-h continuous infusion L Paz-Aresl*, R Kunkal 2, D DeMarial-3, J Cassidy' 4, M Alden3, P Beranek2, S Kaye', D Littlefield2, D Reilly3, S Depee2, P Wissel2, C Twelves' and P O'Dwyer3 CRC Department of Medical Oncology. University of Glasgow. Westem Infirmary Hospital. Glasgow Gll 6NT. UK; 2Glaxo Wellcome Research. Five Moore Drive. Research Triangle Park. NC 27709. USA; 'Fox Chase Cancer Center. 7701 Burholme Avenue. Philadelphia, PA 19111. USA: 4Thomas Jefferson University. Kimmel Cancer Institute. Bluemle Life Sciences Building. 233 S. 10th Street. Suite 502. Philadelphia. PA 19107. […] This study was designed to determine the maximum tolerated dose of Gl147211 as a 72-h infusion and to describe its pharmacokinetics and pharmacodynamics on this schedule. In a single-arm, rising-dose study in patients with advanced cancer, eight cohorts of three or more patients received 72-h infusions of G1147211 at doses ranging from 0.25 to 2.5 mg m-2 day-'. […] Whole-blood G1147211 lactone, total blood and total concentrations were measured during and over the 12 h following the infusion. […] Extensive phase 11 evaluation of this compound and further phase I trials evaluating more prolonged infusions are ongoing. Keywords: G1147211: GG211: camptothecin analogues: topoisomerase I inhibitor; phase I trial; pharmacokinetics: pharmacodynamics: continuous infusion GI 147211 (7-4 methyl piperazinomethilene)- 10.1 1 -ethylenedioxy - 20-(S camptothecin: Figure 1) is a totally synthetic analogue of camptothecin. a natural product isolated from Camptotheca acuminata (WAall et al. 1966: Emerson et al. 1995). […] The nuclear enzyvme DNA topoisomerase I. x hich relaxes DNA supercoils arising during, replication and gene tran- scription. has been identified as the specific targret of camptothecin (Hsianer and Liu. 1988: Wall and Wani. 1995).

[1] = heavy pretreatment, 1.2 mg m-2 day-1, n=3
[2] = heavy pretreatment, 1.5 mg m-2 day-1, n=4
[3] = heavy pretreatment, 2.0 mg m-2 day-1, n=1
[4] = minimal pretreatment, 1.5 mg m-2 day-1, n=5
[5] = minimal pretreatment, 1.75 mg m-2 day-1, n=3
[6] = minimal pretreatment, 2.0 mg m-2 day-1, n=10
[7] = minimal pretreatment, 2.5 mg m-2 day-1, n=2

CC[C@@]1(O)C(=O)OCc2c1cc1n(c2=O)Cc2c-1nc1cc3c(cc1c2CN1CCN(C)CC1)OCCO3 [GI147211, 7-4 methyl piperazinomethilene)-10.1 1-ethylenedioxy - 20-(S camptothecin]
Anaemia, patients with worst CTC grade 1 (0.25 mg m-2 day-1, n=6): 2 patients | Thrombocytopenia, patients with worst CTC grade 1 (0.25 mg m-2 day-1, n=6): 1 patients | Anaemia, patients with worst CTC grade 1 (0.50 mg m-2 day-1, n=4): 1 patients | Leucopenia, patients with worst CTC grade 1 (0.50 mg m-2 day-1, n=4): 1 patients | Anaemia, patients with worst CTC grade 3 (1.0 mg m-2 day-1, n=5): 1 patients | Leucopenia, patients with worst CTC grade 2 (1.0 mg m-2 day-1, n=5): 1 patients | Leucopenia, patients with worst CTC grade 3 (1.0 mg m-2 day-1, n=5): 1 patients | Neutropenia, patients with worst CTC grade 1 (1.0 mg m-2 day-1, n=5): 1 patients | Thrombocytopenia, patients with worst CTC grade 1 (1.0 mg m-2 day-1, n=5): 1 patients | Thrombocytopenia, patients with worst CTC grade 4 (1.0 mg m-2 day-1, n=5): 1 patients | Patients with central venous catheter associated infections requiring i.v. antibiotics (39 patients treated through central venous catheters): Five | Patients complaining of headache while receiving the infusion (all doses): Twenty | Patients with alopecia (all doses, 44 patients): 14 patients | Patients with grade I or II nausea (all doses, 44 patients): Twenty-six | Patients with grade I or II vomiting (all doses, 44 patients): 16 patients | Patients with grade III vomiting (all doses, 44 patients): Three | Patients with mild diarrhoea (all doses, 44 patients): seven | Patients with grade II or III anaemia (doses > 1.2 mg m-2 day-1): 15 of 29 | Phlebitis at the site of venepuncture (five patients infused through peripheral veins, doses < 1.0 mg m-2 day-1): All of these patients developed phlebitis | Recommended phase II dose (heavily pretreated patients): 1.2 mg m-2 day-1 | MTD (heavily pretreated patients): 1.2 mg m-2 day-1 | Time of platelet nadir after the beginning of the infusion (heavily pretreated, 1.2 mg m-2 day-1, range 15-22): 18 days | Platelet nadir, median count (heavily pretreated, 1.2 mg m-2 day-1, range 31-93): 7.5e+10 L⁻¹ | Anaemia, patients with worst CTC grade 1 [1]: 1 patients | Anaemia, patients with worst CTC grade 2 [1]: 2 patients | Leucopenia, patients with worst CTC grade 1 [1]: 1 patients | Leucopenia, patients with worst CTC grade 2 [1]: 1 patients | Neutropenia, patients with worst CTC grade 1 [1]: 1 patients | Thrombocytopenia, patients with worst CTC grade 1 [1]: 2 patients | Thrombocytopenia, patients with worst CTC grade 3 [1]: 1 patients | Anaemia, patients with worst CTC grade 1 [2]: 1 patients | Anaemia, patients with worst CTC grade 2 [2]: 2 patients | Leucopenia, patients with worst CTC grade 3 [2]: 2 patients | Leucopenia, patients with worst CTC grade 4 [2]: 1 patients | Neutropenia, patients with worst CTC grade 4 [2]: 3 patients | Thrombocytopenia, patients with worst CTC grade 4 [2]: 3 patients | Anaemia, patients with worst CTC grade 3 [3]: 1 patients | Leucopenia, patients with worst CTC grade 4 [3]: 1 patients | Neutropenia, patients with worst CTC grade 4 [3]: 1 patients | Thrombocytopenia, patients with worst CTC grade 4 [3]: 1 patients | Induction of diarrhoea (in contrast to irinotecan): does not induce diarrhoea | Patients with grade IV neutropenia who developed fever (in vivo, iv): Five of the ten | Anaemia, patients with worst CTC grade 2 [4]: 2 patients | Anaemia, patients with worst CTC grade 3 [4]: 2 patients | Leucopenia, patients with worst CTC grade 2 [4]: 2 patients | Leucopenia, patients with worst CTC grade 4 [4]: 1 patients | Neutropenia, patients with worst CTC grade 3 [4]: 2 patients | Neutropenia, patients with worst CTC grade 4 [4]: 1 patients | Thrombocytopenia, patients with worst CTC grade 1 [4]: 1 patients | Thrombocytopenia, patients with worst CTC grade 2 [4]: 1 patients | Thrombocytopenia, patients with worst CTC grade 3 [4]: 1 patients | Thrombocytopenia, patients with worst CTC grade 4 [4]: 1 patients | Anaemia, patients with worst CTC grade 1 [5]: 1 patients | Anaemia, patients with worst CTC grade 3 [5]: 1 patients | Leucopenia, patients with worst CTC grade 3 [5]: 1 patients | Neutropenia, patients with worst CTC grade 3 [5]: 1 patients | Anaemia, patients with worst CTC grade 1 [6]: 4 patients | Anaemia, patients with worst CTC grade 2 [6]: 4 patients | Anaemia, patients with worst CTC grade 3 [6]: 1 patients | Leucopenia, patients with worst CTC grade 1 [6]: 4 patients | Leucopenia, patients with worst CTC grade 2 [6]: 1 patients | Leucopenia, patients with worst CTC grade 3 [6]: 1 patients | Leucopenia, patients with worst CTC grade 4 [6]: 2 patients | Neutropenia, patients with worst CTC grade 1 [6]: 2 patients | Neutropenia, patients with worst CTC grade 2 [6]: 2 patients | Neutropenia, patients with worst CTC grade 4 [6]: 3 patients | Thrombocytopenia, patients with worst CTC grade 1 [6]: 2 patients | Thrombocytopenia, patients with worst CTC grade 2 [6]: 1 patients | Thrombocytopenia, patients with worst CTC grade 3 [6]: 4 patients | Anaemia, patients with worst CTC grade 3 [7]: 1 patients | Leucopenia, patients with worst CTC grade 3 [7]: 1 patients | Leucopenia, patients with worst CTC grade 4 [7]: 1 patients | Neutropenia, patients with worst CTC grade 4 [7]: 2 patients | Thrombocytopenia, patients with worst CTC grade 3 [7]: 1 patients | Thrombocytopenia, patients with worst CTC grade 4 [7]: 1 patients | Dose at which neutropenia was dose limiting (minimally pretreated patients): 2.0 mg m-2 day-1 | MTD (minimally pretreated patients): 2.0 mg m-2 day-1 | Nadir neutrophil count, median value (minimally pretreated, 2.0 mg m-2 day-1, range 0.02-3.92): 1.59e+09 L⁻¹ | Platelet nadir, median value (minimally pretreated, 2.0 mg m-2 day-1, range 7-219): 7.2e+10 L⁻¹ | Day of platelet nadir (minimally pretreated, 2.0 mg m-2 day-1, range 8-20): 15 days | Time of lowest nadir neutrophil count, median (minimally pretreated, 2.0 mg m-2 day-1, range 10-22): 16.5 days | Dose at which neutropenia and thrombocytopenia were limiting (more heavily pretreated patients): 1.5 mg m-2 day-1 | Time to recovery of phlebitis (peripheral vein infusions): 7 to 24 days | Median duration of grade IV neutropenia episodes (range 1-14): 5 days | Median duration of grade III or IV thrombocytopenia (range 1-10 days): 4 days | Recommended phase II dose (untreated/minimally pretreated patients): 1.75 mg m-2 day-1
